For one assay, the system named is colon cancer COLO-205. Kind of assay: In vitro cell inhibition assay, CCK-8 method, COLO-205. Particulars: Homo sapiens, COLO 205, read-out: The half maximal inhibitory concentration (IC50). In general terms: Tetrazolium dyes change colour on reduction, which living cells bring about.
For a further assay, the system named is cervical cancer Hela. Put plainly: In vitro cell inhibition assay, CCK-8 method, Hela. The format is cell-based, human. To be noted: Homo sapiens, read-out: The half maximal inhibitory concentration (IC50). The procedure: (§1) After the cell culture flasks gently shaking, culture fluid was discarded in clean bench. […] Cells were collected and transferred to centrifuge tube. For the non-adherent cells HL-60, CCRF-CEM and MOLT-4, cell flasks were picked up from incubator and then transferred to the centrifuge tubes directly. After cells were collected using centrifuge at 1000 rpm/min for 5 min, the fluid was discarded. Then cells were washed for one time by PBS, discard fluid. Then add some medium, count cells under inverted microscope using blood cell counting plate, according the counting number to making the density of adherent cell was 1×10^5 cells/mL, the non-adherent cell was 2×10^5 cells/mL (the volumes of HL-60, CCRF-CEM, MOLT-4 are smaller than non-adherent cells, these cells added to each well was much more higher). Add 50 μL aliquots to each well of 96-well plates (the density of adherent cells was 5000 cells/well, non-adherent cells was 10000 cells/well). Blank control, Negative control, blank control with compounds and positive control wells were grouped, and three replicate wells were used for each data point in the experiments. Then the cells were cultured in 5% incubator for overnight at 37° C., Then the different concentration compounds were added to each well. […] The absorbance (A) of each well was read at 450 nm using a plate reader.

The subject of assay [1] is non-small cell lung cancer NCI-H1650. Kind of assay: In vitro cell inhibition assay, CCK-8 method, NCI-H1650. The format is cell-based, human. To be noted: Homo sapiens; Non-small-cell carcinoma NCI-H1650, CCK-8 method; read-out: The half maximal inhibitory concentration (IC50). The procedure: as §1
For assay [2], the system named is non-small cell lung cancer NCI-H358. Put plainly: In vitro cell inhibition assay, CCK-8 method, NCI-H358. The format is cell-based, human. To be noted: Homo sapiens; Non-small-cell carcinoma NCI-H358, CCK-8 method; read-out: The half maximal inhibitory concentration (IC50). The procedure: as §1
The subject of another assay is leukemia HL-60 cells. Kind of assay: In vitro cell inhibition assay, CCK-8 method, HL-60. The format is cell-based, human. To be noted: for Proliferation inhibitory effect of the compounds on HL-60 cells (% of Control): CCK-8 method. The procedure:
(§2) After the cell culture flasks gently shaking, culture fluid was discarded in clean bench. […] Cells were collected and transferred to centrifuge tube. For the non-adherent cells HL-60, CCRF-CEM and MOLT-4, cell flasks were picked up from incubator and then transferred to the centrifuge tubes directly. After cells were collected using centrifuge at 1000 rpm/min for 5 min, the fluid was discarded. Then cells were washed for one time by PBS, discard fluid. Then add some medium, count cells under inverted microscope using blood cell counting plate, according the counting number to making the density of adherent cell was 1×10^5 cells/mL, the non-adherent cell was 2×10^5 cells/mL (the volumes of HL-60, CCRF-CEM, MOLT-4 are smaller than non-adherent cells, these cells added to each well was much more higher). Add 50 μL aliquots to each well of 96-well plates (the density of adherent cells was 5000 cells/well, non-adherent cells was 10000 cells/well). Blank control, Negative control, blank control with compounds and positive control wells were grouped, and three replicate wells were used for each data point in the experiments. Then the cells were cultured in 5% incubator for overnight at 37° C., Then the different concentration compounds were added to each well. After incubation for 48 h, according to the manufacturer's instructions, CCK-8 reagent (10 μl) was added and incubation was continued for a further 2-4 h. The absorbance (A) of each well was read at 450 nm using a plate reader.

Assay [3] deals with nasopharyngeal carcinoma CNE. Kind of assay: In vitro cell inhibition assay, CCK-8 method, CNE. Type of assay: cell-based, human. Particulars: Homo sapiens, read-out: The half maximal inhibitory concentration (IC50). The procedure:
as §1

Another assay has as its system prostate cancer DU-145. Kind of assay: In vitro cell inhibition assay, CCK-8 method, DU-145. The format is cell-based, human. Particulars: Homo sapiens; Prostate cancer DU-145, CCK-8 method; read-out: The half maximal inhibitory concentration (IC50). On the procedure: as §1
The subject of assay [4] is non-small cell lung cancer A549 cells. Kind of assay: In vitro cell inhibition assay, CCK-8 method, A549. Type of assay: cell-based, human. Particulars: for Proliferation inhibitory effect of the compounds on A549 cells (% of Control): 48 h incubation. On the procedure:
as §2

Another assay relates to colon cancer HT-29. Kind of assay: In vitro cell inhibition assay, CCK-8 method, HT-29. Type of assay: cell-based, human. To be noted: Homo sapiens; Colorectal Cancer HT-29, CCK-8 method; read-out: The half maximal inhibitory concentration (IC50). On the procedure: as §1
The next assay deals with glioma U251. Kind of assay: In vitro cell inhibition assay, CCK-8 method, U251. The format is cell-based, human. Particulars: Homo sapiens, U-251; glioma U251, CCK-8 method; read-out: The half maximal inhibitory concentration (IC50). On the procedure: as §1
For the next assay, the system named is leukemia MOLT-4. Put plainly: In vitro cell inhibition assay, CCK-8 method, MOLT-4. The format is cell-based, human. Particulars: Homo sapiens; leukemia MOLT-4, CCK-8 method; read-out: The half maximal inhibitory concentration (IC50). On the procedure:
as §1

In the next assay the test system is prostate cancer PC-3. Kind of assay: In vitro cell inhibition assay, CCK-8 method, PC-3. To be noted: Homo sapiens; Prostate cancer PC-3, CCK-8 method; read-out: The half maximal inhibitory concentration (IC50). The format is cell-based, human. On the procedure:
as §1

A further assay deals with hepatocarcinoma SK-HEP-1. Kind of assay: In vitro cell inhibition assay, CCK-8 method, SK-HEP-1. The format is cell-based, human. Particulars: Homo sapiens, SK-HEP1; hepatocarcinoma SK-HEP-1, CCK-8 method; read-out: The half maximal inhibitory concentration (IC50). On the procedure:
as §1

For another assay, the system named is pancreatic cancer BXPC-3. Kind of assay: In vitro cell inhibition assay, CCK-8 method, BXPC-3. Type of assay: cell-based, human. Particulars: Homo sapiens; pancreatic cancer BXPC-3, CCK-8 method; read-out: The half maximal inhibitory concentration (IC50). On the procedure: as §1
For the next assay, the system named is leukemia CCRF-CEM. Put plainly: In vitro cell inhibition assay, CCK-8 method, CCRF-CEM. The format is cell-based, human. To be noted: Homo sapiens, read-out: The half maximal inhibitory concentration (IC50). The procedure:
as §1

In the next assay the test system is breast cancer MDA-MB-231. Put plainly: In vitro cell inhibition assay, CCK-8 method, MDA-MB-231. The format is cell-based, human. To be noted: Homo sapiens; breast cancer MDA-MB-231, CCK-8 method; read-out: The half maximal inhibitory concentration (IC50). On the procedure:
as §1

The next assay has as its system bladder cancer T24. Kind of assay: In vitro cell inhibition assay, CCK-8 method, T24. Type of assay: cell-based, human. Particulars: Homo sapiens; bladder cancer T24, CCK-8 method; read-out: The half maximal inhibitory concentration (IC50). On the procedure:
as §1

The test system of assay [5] is intracranial malignant melanoma A375. Put plainly: In vitro cell inhibition assay, CCK-8 method, A375. The format is cell-based, human. Particulars: Homo sapiens, A-375; melanoma A375, CCK-8 method; read-out: The half maximal inhibitory concentration (IC50). The procedure: as §1
The subject of a further assay is osteosarcoma MG-63. Kind of assay: In vitro cell inhibition assay, CCK-8 method, MG-63. Particulars: Homo sapiens; osteosarcoma MG-63, CCK-8 method; read-out: The half maximal inhibitory concentration (IC50). Type of assay: cell-based, human. On the procedure: as §1

A value given as a limit tells only on which side of the number the result lay.

In the case of `COc1cc2ncnc(Nc3ccc(F)c(Cl)c3)c2cc1OCCCN1CCOCC1` [Gefitinib], the IC50 in the assay with colon cancer COLO-205 came to 6970 nM.

With `CC(=O)O[C@H]1C(=O)[C@@]2(C)[C@H]([C@H](OC(=O)c3ccccc3)[C@]3(O)C[C@H](OC(=O)[C@H](O)[C@@H](NC(=O)c4ccccc4)c4ccccc4)C(C)=C1C3(C)C)[C@]1(OC(C)=O)CO[C@@H]1C[C@@H]2O` [Taxol], the IC50 was under 10 nM with cervical cancer Hela; 420 nM in assay [1]; 278 nM in [2]; under 10 nM in the assay on leukemia HL-60 cells (Homo sapiens, leukemia HL-60, CCK-8 method, read-out: The half maximal inhibitory concentration (IC50)); under 10 nM with colon cancer COLO-205; over 100000 nM in assay [3]. Also, the IC50 was 17400 nM in the assay with prostate cancer DU-145; 83500 nM in [4] (Homo sapiens, Non-small-cell carcinoma A549, CCK-8 method, read-out: The half maximal inhibitory concentration (IC50)); over 100000 nM in the assay on colon cancer HT-29; over 100000 nM with glioma U251; under 10 nM with leukemia MOLT-4; 69000 nM with prostate cancer PC-3. Besides, the IC50 is 47 nM in the assay with hepatocarcinoma SK-HEP-1; under 10 nM in the assay on pancreatic cancer BXPC-3; under 10 nM in the assay with leukemia CCRF-CEM; 2020 nM in the assay with breast cancer MDA-MB-231; 3540 nM in the assay with bladder cancer T24; 55300 nM in assay [5]. In addition, in the assay with osteosarcoma MG-63, the IC50 was under 10 nM.

For the compound `N#Cc1c(Cl)c(Cl)c(Nc2ccc(C(F)(F)F)cc2)c(C#N)c1Cl` [Compound 6-24], the “Proliferation inhibitory effect of the compounds on HL-60 cells (% of Control)” value in the assay on leukemia HL-60 cells (concentration 0.01 μM) is reported as 0.00 % of Control; in the assay on leukemia HL-60 cells (concentration 0.1 μM), 17.55 % of Control; in the assay with leukemia HL-60 cells (concentration 1 μM), 48.39 % of Control; in the assay with leukemia HL-60 cells (concentration 10 μM), 56.72 % of Control; with leukemia HL-60 cells (concentration 100 μM), 95.11 % of Control. For the same compound, the “Proliferation inhibitory effect of the compounds on A549 cells (% of Control)” value in assay [4] (CCK-8, 0.01 μM) is on record as 22.06 % of Control; in [4] (CCK-8, 0.1 μM) it was 24.27 % of Control; in assay [4] (CCK-8, 1 μM), 31.44 % of Control; in [4] (CCK-8, 10 μM), 60.31 % of Control; in assay [4] (CCK-8, 100 μM) it was 87.36 % of Control.
